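A five-concentration, 48-hour dose response in 96-well plates underlies each endpoint, interpolated linearly between surrounding concentrations. GI50 is the concentration that inhibits growth by half.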 Activity calls are given as the source filed them. No stated cut-off is given here; in the data, active = GI50 up to about 1.1 µM and inactive = higher.
What was measured:
Assay in all cases: inhibition of tumour cell growth, NCI panel, 48 h
MDA-MB-435 = test system: MDA-MB-435
SK-MEL-2 = test system: SK-MEL-2
TK-10 = test system: TK-10
OVCAR-5 = test system: OVCAR-5
SK-MEL-28 = test system: SK-MEL-28
OVCAR-4 = test system: OVCAR-4
786-0 = test system: 786-0
SF-295 = test system: SF-295
A549 = test system: A549
SF-268 = test system: SF-268
MCF7 = test system: MCF7
SR = test system: SR
SNB-19 = test system: SNB-19
OVCAR-3 = test system: OVCAR-3
SF-539 = test system: SF-539
SN12C = test system: SN12C
SK-MEL-5 = test system: SK-MEL-5
NCI-H23 = test system: NCI-H23
CAKI-1 = test system: CAKI-1
NCI-H226 = test system: NCI-H226

| SMILES | GI50 (MDA-MB-435) | GI50 (SK-MEL-2) | GI50 (TK-10) | GI50 (OVCAR-5) | GI50 (SK-MEL-28) | GI50 (OVCAR-4) | GI50 (786-0) | GI50 (SF-295) | GI50 (A549) | GI50 (SF-268) | GI50 (MCF7) | GI50 (SR) | GI50 (SNB-19) | GI50 (OVCAR-3) | GI50 (SF-539) | GI50 (SN12C) | GI50 (SK-MEL-5) | GI50 (NCI-H23) | GI50 (CAKI-1) | GI50 (NCI-H226) |
| --- | --- | --- | --- | --- | --- | --- | --- | --- | --- | --- | --- | --- | --- | --- | --- | --- | --- | --- | --- | --- |
| COC(=O)c1c(C)cc(OC)c(C/C=C(\C)CCCc2coc(C=C(C)C)c2)c1OC | > 100 µM (inactive) | > 100 µM (inactive) | > 100 µM (inactive) | > 100 µM (inactive) | > 100 µM (inactive) | > 100 µM (inactive) | > 100 µM (inactive) | > 100 µM (inactive) | > 100 µM (inactive) | 1.71 µM (inactive) | > 100 µM (inactive) | 7.6 µM (inactive) | > 100 µM (inactive) | > 100 µM (inactive) | 49 µM (inactive) | > 100 µM (inactive) | > 100 µM (inactive) | > 100 µM (inactive) | > 100 µM (inactive) |  |
| Cc1c(C(=O)C(=O)c2ccccc2)c(C)c(C(=O)C(=O)c2ccccc2)c(C)c1C(=O)C(=O)c1ccccc1 | > 100 µM (inactive) |  | > 100 µM (inactive) | > 100 µM (inactive) | > 100 µM (inactive) | > 100 µM (inactive) | > 100 µM (inactive) | > 100 µM (inactive) | > 100 µM (inactive) | > 100 µM (inactive) | > 100 µM (inactive) | > 100 µM (inactive) | > 100 µM (inactive) |  | > 100 µM (inactive) | > 100 µM (inactive) | > 100 µM (inactive) |  |  |  |
| CCn1c(-c2cc(OC)cc(OC)c2)nc2c1C(=O)c1ccccc1C2=O | > 100 µM (inactive) |  | > 100 µM (inactive) | > 100 µM (inactive) | > 100 µM (inactive) | > 100 µM (inactive) | 45.4 µM (inactive) | 29.2 µM (inactive) | > 100 µM (inactive) | 65.8 µM (inactive) | > 100 µM (inactive) | > 100 µM (inactive) | > 100 µM (inactive) | > 100 µM (inactive) | > 100 µM (inactive) | > 100 µM (inactive) | > 100 µM (inactive) | > 100 µM (inactive) |  | > 100 µM (inactive) |
| COc1cc([C@@H]2c3cc4c(cc3[C@@H](Nc3ccc(Cl)cc3C(=O)c3ccccc3)[C@H]3COC(=O)[C@H]23)OCO4)cc(OC)c1OC | 0.242 µM (active) | 2.34 µM (inactive) | > 100 µM (inactive) | 0.598 µM (active) | 0.372 µM (active) | > 100 µM (inactive) | 0.394 µM (active) | 0.299 µM (active) | 0.501 µM (active) | 0.558 µM (active) | 0.395 µM (active) | 0.295 µM (active) | 0.408 µM (active) | 0.324 µM (active) | 0.274 µM (active) | 0.518 µM (active) | 0.298 µM (active) | 0.43 µM (active) | 0.601 µM (active) |  |
| COC(=O)c1cc(C)ccc1C1CN=NC12Cc1c(C)cc(C)cc1C2=O (stereo not given) | 16.3 µM (inactive) | 16.4 µM (inactive) | 34.1 µM (inactive) | 29.4 µM (inactive) | 51.1 µM (inactive) | 16.9 µM (inactive) | 25.7 µM (inactive) | 23.2 µM (inactive) | 26.7 µM (inactive) | 20.8 µM (inactive) | 20.6 µM (inactive) |  | 31 µM (inactive) | 14.9 µM (inactive) | 17.1 µM (inactive) | 28.6 µM (inactive) | 17 µM (inactive) | 19.1 µM (inactive) | 31.4 µM (inactive) | 35.8 µM (inactive) |
| Cc1cn(C2CC(n3cc(Cn4cc(F)c(=O)[nH]c4=O)nn3)C(CO)O2)c(=O)[nH]c1=O (stereo not given) | > 100 µM (inactive) | > 100 µM (inactive) | > 100 µM (inactive) | > 100 µM (inactive) | > 100 µM (inactive) | > 100 µM (inactive) | > 100 µM (inactive) | > 100 µM (inactive) | > 100 µM (inactive) | > 100 µM (inactive) | > 100 µM (inactive) |  | > 100 µM (inactive) | > 100 µM (inactive) | > 100 µM (inactive) | > 100 µM (inactive) | > 100 µM (inactive) | > 100 µM (inactive) | > 100 µM (inactive) | > 100 µM (inactive) |
| Cc1nc2c(=O)n3c4c(cccc4c2o1)CCC3 | > 100 µM (inactive) | > 100 µM (inactive) | > 100 µM (inactive) | > 100 µM (inactive) | > 100 µM (inactive) | > 100 µM (inactive) | > 100 µM (inactive) | > 100 µM (inactive) | > 100 µM (inactive) | > 100 µM (inactive) | > 100 µM (inactive) |  | > 100 µM (inactive) | > 100 µM (inactive) | 73.5 µM (inactive) | > 100 µM (inactive) | > 100 µM (inactive) | > 100 µM (inactive) | > 100 µM (inactive) | > 100 µM (inactive) |
| CC(=O)N1c2ccccc2C23CCN4CC5=CCOC(O)C(C5CC42)C13 (stereo not given) | > 100 µM (inactive) | > 100 µM (inactive) | > 100 µM (inactive) | > 100 µM (inactive) | > 100 µM (inactive) | > 100 µM (inactive) | > 100 µM (inactive) | > 100 µM (inactive) | > 100 µM (inactive) | > 100 µM (inactive) | > 100 µM (inactive) |  | > 100 µM (inactive) | > 100 µM (inactive) | > 100 µM (inactive) | > 100 µM (inactive) | > 100 µM (inactive) | > 100 µM (inactive) | > 100 µM (inactive) | > 100 µM (inactive) |
| C(=N/Nc1ccccn1)/c1cccnc1 | > 100 µM (inactive) | > 100 µM (inactive) | > 100 µM (inactive) | > 100 µM (inactive) | 87.7 µM (inactive) | 98.9 µM (inactive) | > 100 µM (inactive) | > 100 µM (inactive) | > 100 µM (inactive) | > 100 µM (inactive) | 43.9 µM (inactive) |  | > 100 µM (inactive) | > 100 µM (inactive) | > 100 µM (inactive) | > 100 µM (inactive) | > 100 µM (inactive) | 75 µM (inactive) | > 100 µM (inactive) | > 100 µM (inactive) |
| Cc1nn(-c2ccccc2)c2nc3ccc(Cl)cc3c(-c3ccccc3)c12 | > 100 µM (inactive) | > 100 µM (inactive) | > 100 µM (inactive) | > 100 µM (inactive) | > 100 µM (inactive) | > 100 µM (inactive) | > 100 µM (inactive) | > 100 µM (inactive) | > 100 µM (inactive) | > 100 µM (inactive) | > 100 µM (inactive) | > 100 µM (inactive) | > 100 µM (inactive) | > 100 µM (inactive) |  | > 100 µM (inactive) | > 100 µM (inactive) | > 100 µM (inactive) |  | > 100 µM (inactive) |
| N#C/C(=C/NC(=S)Nc1ccc(S(N)(=O)=O)cc1)C(N)=O | > 100 µM (inactive) |  | > 100 µM (inactive) | > 100 µM (inactive) | > 100 µM (inactive) | > 100 µM (inactive) | > 100 µM (inactive) | > 100 µM (inactive) | > 100 µM (inactive) | > 100 µM (inactive) | > 100 µM (inactive) | > 100 µM (inactive) |  | > 100 µM (inactive) | > 100 µM (inactive) | > 100 µM (inactive) | > 100 µM (inactive) | > 100 µM (inactive) | > 100 µM (inactive) |  |
| C=C(C)[C@@H]1CC[C@]2(C(=O)O)CC[C@]3(C)[C@H](CCC4[C@@]5(C)CC[C@H](C(=O)/C=C/c6ccc(O)c(O)c6)C(C)(C)[C@@H]5CC[C@]43C)[C@@H]12 (stereo not given in full) | 2.29 µM (inactive) | 12.6 µM (inactive) | 11 µM (inactive) | 12.7 µM (inactive) |  | 10.4 µM (inactive) | 4.35 µM (inactive) | 3.75 µM (inactive) | 2.58 µM (inactive) | 5.28 µM (inactive) | 4.04 µM (inactive) | 3.4 µM (inactive) | 11.9 µM (inactive) | 10.7 µM (inactive) | 2.53 µM (inactive) | 5.02 µM (inactive) | 2.85 µM (inactive) | 2.61 µM (inactive) | 3.66 µM (inactive) |  |
| CS[C@]12[C@@H]3C(=O)N(C)C(=O)[C@@H]3[C@](C)(C(=O)N1C)C(=O)N2c1ccccc1 | > 100 µM (inactive) | > 100 µM (inactive) | > 100 µM (inactive) | > 100 µM (inactive) | > 100 µM (inactive) | > 100 µM (inactive) | > 100 µM (inactive) | > 100 µM (inactive) | > 100 µM (inactive) | > 100 µM (inactive) | > 100 µM (inactive) |  | > 100 µM (inactive) | > 100 µM (inactive) | > 100 µM (inactive) | > 100 µM (inactive) | > 100 µM (inactive) | > 100 µM (inactive) | > 100 µM (inactive) | > 100 µM (inactive) |
| CN(C)CCCNc1nnc(NCCCN(C)C)c2c(=O)c3sccc3[nH]c12 | 8.15 µM (inactive) | 18.4 µM (inactive) | 9.86 µM (inactive) | 16.6 µM (inactive) | 28.8 µM (inactive) | 5.42 µM (inactive) | 4.59 µM (inactive) | 13.7 µM (inactive) | 5.41 µM (inactive) | 5.53 µM (inactive) | 5.64 µM (inactive) |  | 31.7 µM (inactive) | 14.2 µM (inactive) | 5.51 µM (inactive) | 3.19 µM (inactive) | 1.4 µM (inactive) | 10.8 µM (inactive) | 5.05 µM (inactive) | 8.95 µM (inactive) |
| O=C(Cn1c(C(=O)/C=C/c2ccco2)nc2ccccc21)c1ccc(Cl)cc1 | 12.1 µM (inactive) | 12.3 µM (inactive) | 25.1 µM (inactive) | > 100 µM (inactive) | 26.6 µM (inactive) | 14.4 µM (inactive) | 14.3 µM (inactive) |  | 26.5 µM (inactive) | 9.71 µM (inactive) | 19.9 µM (inactive) | 3.03 µM (inactive) | 27.5 µM (inactive) | 31.5 µM (inactive) | 44.9 µM (inactive) | 15.2 µM (inactive) | 19.9 µM (inactive) | 11.9 µM (inactive) |  | 52.7 µM (inactive) |
